In one experiment the target is T1, FTase (Rattus norvegicus, UniProt Q02293+Q04631).
T1 construct: purchased JENA BIOSCIENCE
Briefly: In vitro FTase assay (K-Ras4B substrate, [3H]FPP). The format is biochemical. The note with it: concentration increased to 50,000 nM. From the text: To further characterize the pilot library, inhibitors of protein farnesyltransferase were identified. This was accomplished by using K-Ras4B as a substrate protein, tritiated farnesylpyrophosphate ([^3H]FPP) and protein farnesyltransferase. See Finegold, A. A., Johnson, D. I., Farnsworth, C. C., Gelb, M. H., Judd, S. R., Glomset, J. A. and Tamanoi, F. (1991) Protein geranylgeranyltransferase of Saccharomyces cerevisiae is specific for Cys-Xaa-Xaa-Leu motif and requires the CDC43 gene product but not the DPR1 gene product. Proc. Natl. Acad. Sci. USA 88, 4448-4452. […] On the other hand, the structure of the compounds P1-F11, P2-B7 and P2-E9 resemble those of GGTIs. The FTI P1-F11 resembles the GGTI P1-F10, while the FTI P2-B7 resembles the GGTI P2-C10. The FTI P2-E9 is similar to the GGTI P2-G3. Similarity of some GGTI and FTI compounds may point to common structural features between the two closely related enzymes. As described before, FTase and GGTase I have similar three-dimensional structures and a shared alpha subunit. On the other hand, FTase specific inhibitors may recognize a region(s) that is different between the two enzymes.
Examples 2-8 illustrate assays of bioactivity. These methods are applicable to the compounds of the present invention having the particular linkers and scaffolds described herein, to determine their activity. […] Varying concentrations of the two compounds were added to each enzyme reaction. The FTase (protein farnesyltransferase) assay was carried out using K-Ras4B as a substrate protein, FTase (JENA Bioscience, San Diego, Calif.) and [3H]farnesyl pyrophosphate. Incubation was for 30 min at 37° C.
GGTase-I and FTase activities were determined by following the incorporation of radiolabeled isoprenoid [^3H]-geranylgeranyl or [^3H]-farnesyl into substrate proteins. FTase or GGTase-I (50 nM) were used to initiate reactions containing 0.4 μM of [^3H]-FPP or 0.5 μM of [^3H]-GGPP and 2 μM of MBP-tagged substrates (K-Ras4B for FTase; RhoA for GGTase-I) in 20 μl of buffer {50 mM Tris-HCl (pH 7.5), 10 mM MgCl2, […] and 5 mM DTT}. Inhibitors were added at the indicated concentrations. The final DMSO concentration was 2.5% for all samples.
Reactions were carried out for 10 min at 30° C. The reaction mixture was spotted onto a filter paper, treated with 10% trichloroacetic acid (TCA) followed by ethanol and acetone washing. The filter was counted using a scintillation counter. Kinetic assays in which the GGPP concentration was varied employed fixed concentrations of GGTase-I and RhoA, and reactions were carried out for 5 min. Similarly, fixed concentrations of GGTase-I and GGPP were used when the amount of RhoA was varied.

The next experiment concerns the target T2, GGTase-I (Rattus norvegicus, UniProt P53610+Q04631).
T2 construct: purchased JENA BIOSCIENCE
Briefly: In vitro GGTase-I enzyme assay (IC50, kinetics). The class given is biochemical. Summed up:
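Rat GGTase-I (50 nM) with 0.5 μM [3H]-GGPP and 2 μM MBP-RhoA in Tris-HCl pH 7.5, MgCl2, ZnCl2, DTT, 2.5% DMSO, 10 min at 30 °C; radiolabel incorporation by TCA filter binding and scintillation. Kinetics: 5 min reactions varying GGPP or RhoA at fixed other components.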

The subject of experiment [1] is Rap1 geranylgeranylation in NIH3T3 cells. Briefly: Unprenylated Rap1 immunoblot in NIH3T3 cells. The class given is cell-based. The following applies: 48 hours. The procedure:
The inhibition of GGTase-I catalyzed protein geranylgeranylation was assessed by examining the accumulation of unprenylated Rap1. To measure the level of unprenylated Rap1, cells were cultured in DMEM plus 10% (v/v) FBS overnight, and then DMSO or appropriate inhibitors were added. Incubation was continued for 48 hours. The cells were harvested and lysed in lysis buffer (20 mM Tris-HCl, pH 7.5, 150 mM NaCl, 1 mM EDTA, 1% NP-40 and 1× Protease Inhibitor Cocktail). Whole cell lysates of NIH3T3 cells were electrophoresed on a 12% SDS-PAGE, transferred to nitrocellulose membranes and immunoblotted with the antibody against unprenylated form of Rap1 (Santa Cruz Biotechnology catalog number sc-1482, goat), total-Rap1 (Santa Cruz: sc-65) or actin (Sigma: A4700). Actin was used as a loading control.

The target of the next experiment is T3, RabGGTase (Rattus norvegicus, UniProt Q08602+Q08603).
T3 construct: purchased JENA BIOSCIENCE
T3 sequence (Q08602 1-567): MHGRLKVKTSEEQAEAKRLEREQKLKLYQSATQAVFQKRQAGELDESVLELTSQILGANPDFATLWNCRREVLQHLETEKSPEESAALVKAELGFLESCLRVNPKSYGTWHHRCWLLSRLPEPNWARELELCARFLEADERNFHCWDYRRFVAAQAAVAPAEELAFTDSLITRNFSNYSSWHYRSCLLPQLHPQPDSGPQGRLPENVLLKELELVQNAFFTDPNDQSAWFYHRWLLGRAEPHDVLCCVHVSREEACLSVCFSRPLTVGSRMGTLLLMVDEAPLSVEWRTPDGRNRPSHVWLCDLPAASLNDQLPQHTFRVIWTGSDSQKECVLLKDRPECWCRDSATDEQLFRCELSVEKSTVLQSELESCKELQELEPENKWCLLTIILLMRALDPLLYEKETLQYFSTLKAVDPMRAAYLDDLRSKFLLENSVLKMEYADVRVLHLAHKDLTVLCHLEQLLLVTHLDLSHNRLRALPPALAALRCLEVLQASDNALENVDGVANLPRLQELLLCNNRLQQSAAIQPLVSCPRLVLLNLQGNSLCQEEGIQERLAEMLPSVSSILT
T3 sequence (Q08603 1-331): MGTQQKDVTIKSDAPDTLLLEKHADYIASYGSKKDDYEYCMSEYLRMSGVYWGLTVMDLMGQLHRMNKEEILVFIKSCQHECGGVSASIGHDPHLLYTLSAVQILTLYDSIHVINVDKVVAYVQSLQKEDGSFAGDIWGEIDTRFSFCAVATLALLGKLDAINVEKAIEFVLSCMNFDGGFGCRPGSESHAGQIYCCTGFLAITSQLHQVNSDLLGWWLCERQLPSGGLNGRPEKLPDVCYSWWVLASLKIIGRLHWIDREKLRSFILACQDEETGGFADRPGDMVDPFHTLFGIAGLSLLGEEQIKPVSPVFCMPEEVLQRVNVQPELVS
Kind of experiment: In vitro RabGGTase (GGTase-II) assay with REP-1. The format is biochemical. The note with it: up to 10,000 nM. As to the method:
The GGTase-I assay was carried out using RhoA as a substrate protein, GGTase-I (JENA Bioscience) and [3H]geranylgeranyl pyrophosphate. Incubation was for 30 min at 37° C. GGTase-II (or RabGGTase) assay was carried out using YPTI as a substrate protein, GGTase-II (Calbiochem, San Diego, Calif.) plus REP1 (Calbiochem) and [3H]geranylgeranyl pyrophosphate. Incubation was for 30 min at 37° C. FIGS. 20D-20F show the three dimensional structure of GGTase I (D), FTsse (E) and GGTase II (F) which can be obtained from X-ray diffraction studies of protein crystals.
For RabGGTase assays, the reaction contained the following components in 20 μl; 0.625 μl of [^3H]-GGPP (0.7 μM), 25 nM RabGGTase, 0.6 μM REP-1, 0.6 μM purified Rab7 or Ypt1 protein, 40 mM HEPES (pH 7.5), 150 mM NaCl, 5 mM DTT, 3 mM MgCl2 and 0.3% CHAPS. Reactions were carried out for 20 min at 37° C. and the products were analyzed as described above for the GGTase-I reaction. Graphing and Michaelis-Menten analysis were performed using Prism version5 (GraphPad, San Diego Calif.).

The next experiment has as its system K562 cells. Briefly: K562 cell growth inhibition. The class given is cell-based, human. The following applies: 72 hours. Summed up:
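Human erythroleukemia K562 cells exposed to compound for 72 hours. Cell number measured with CCK-8 and viability expressed relative to the DMSO control.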

In experiment [2] the test system is H-Ras farnesylation in NIH3T3 cells. Briefly: H-Ras mobility shift immunoblot in NIH3T3 cells. The format is cell-based. The following applies: 48 hours. The procedure:
K562 cells were treated with modified compounds for 72 hours and then cell number was counted. IC50 values of cell viability relative to the DMSO were measured. […] Data represent the mean+/−S.D. of two measurements from two independent experiments. *, P<0.05 compared with the value for DMSO. […] Whole cell lysates from cells treated with DMSO, P5-H6, P61-A6, GGTI (GGTI-298), FTI (BMS-225975) or RabGGTI (P49-F6) for 48 hours were prepared and processed for immunoblot analysis using antibody against unprenylated form of Rap1 (C: upper panel), Total-Rap1 (C: middle panel), H-Ras (D: upper panel), Rab5b (E: upper panel) or actin (C, D, and E: lower panel). The immunoblots shown represent two independent experiments for each treatment.
This was examined by using a farnesylated protein H-Ras.

SMILES strings stand for the structures. “Also recorded” adds a separate entry of the source.

As to `Cc1ccccc1S(=O)(=O)N1[C@@H](c2ccc(Cl)cc2)C(C(=O)O)=C[C@H]1C(C)(C)C` (relative stereo) [P5-H6], at FTase, the “inhibition of FTase activity” value is recorded as “no significant inhibition”. In addition, the “specificity among GGTase-I, FTase and GGTase-II” value on GGTase-I (FIGS. 20A-20C, varying concentrations) is listed as “specifically inhibit GGTase I”. Further, at GGTase-I (Michaelis-Menten analysis), the Ki was 0.408 ± 0.032 µM. In addition, the IC50 turned out to be 0.466 µM at GGTase-I (Tables 5, 14, read-out: In vitro (enzyme assay) IC50, GGTase I) and 20 µM with K562 cells (Homo sapiens, K562, FIG. 36A, read-out: IC50, inhibition of proliferation of K562 cells). For the same compound, the “mode of GGTase-I inhibition with respect to GGPP” value at GGTase-I (varying GGPP, fixed RhoA) is listed as “do not compete with GGPP; also recorded: uncompetitive inhibitors”. For the same compound, the “mode of GGTase-I inhibition with respect to the protein substrate (RhoA)” value at GGTase-I (varying RhoA, fixed GGPP) is “compete with a substrate protein; also recorded: competitive inhibitors”. Also, the “appearance of the unprenylated (unprocessed) Rap1 band” value in experiment [1] was “in a dose dependent manner; also recorded: inhibits Rap1 geranylgeranylation”. Besides, the “appearance of the unprenylated Rap1 band at 2.5 μM” value in experiment [1] (2.5 μM) is “not seen”. The “inhibition of RabGGTase” value on RabGGTase is “little inhibition”. In addition, in the experiment on K562 cells (FIG. 23), the “inhibition of proliferation of K562 cells” value was “inhibit the growth of the K562 cells”.

Regarding `Cn1cncc1CN1C[C@@H](Cc2ccccc2)N(S(=O)(=O)c2cccs2)Cc2cc(C#N)ccc21` [BMS-225975], in experiment [2], the “mobility shift of H-Ras (protein farnesylation)” value was “slowed the mobility”.

The Ki is a dissociation constant, usually derived from enzyme kinetics or from competition with a known ligand.

The values above are taken from patent publication US8815935B2, “Inhibitors of protein prenyltransferases” (The Regents of the University of California, priority 2008, dated 2014).
